According to ChEMBL document CHEMBL3045446, “In vitro antimicrobial and antimycobacterial activity of some chalcones and their derivatives” (2013):
Converted amounts (≈) assume the structure as drawn.

Columns and labels:
Format in all cases: functional
Aspergillus niger [1] = assay: Antimicrobial activity against Aspergillus niger MTCC 282 assessed as diameter of growth inhibition zone after 48 hr
Aspergillus clavatus [2] = assay: Antimicrobial activity against Aspergillus clavatus MTCC 1323 assessed as growth inhibition after 48 hr by agar streak dilution method; details: MTCC 1323, 48 h
Escherichia coli [3] = assay: Antimicrobial activity against Escherichia coli MTCC 739 assessed as diameter of growth inhibition zone after 24 hr
Candida albicans [4] = assay: Antimicrobial activity against Candida albicans MTCC 183 assessed as diameter of growth inhibition zone after 48 hr
Shigella flexneri [5] = assay: Antimicrobial activity against Shigella flexneri MTCC1457 assessed as growth inhibition after 24 hr by agar streak dilution method; details: MTCC1457, 24 h
Staphylococcus aureus [6] = assay: Antimicrobial activity against Staphylococcus aureus MTCC 96 assessed as diameter of growth inhibition zone after 24 hr
Salmonella typhi [7] = assay: Antimicrobial activity against Salmonella enterica subsp. enterica serovar Typhi MTCC 733 assessed as growth inhibition after 24 hr by agar streak dilution method; details: MTCC 733, 24 h
Aspergillus clavatus [8] = assay: Antimicrobial activity against Aspergillus clavatus MTCC 1323 assessed as diameter of growth inhibition zone after 48 hr
Klebsiella pneumoniae [9] = assay: Antimicrobial activity against Klebsiella pneumoniae MTCC 109 assessed as diameter of growth inhibition zone after 24 hr
Aspergillus fumigatus [10] = assay: Antimicrobial activity against Aspergillus fumigatus MTCC 343 assessed as growth inhibition after 48 hr by agar streak dilution method; details: MTCC 343, 48 h
Candida albicans [11] = assay: Antimicrobial activity against Candida albicans MTCC 183 assessed as growth inhibition after 48 hr by agar streak dilution method; details: MTCC 183, 48 h
Proteus vulgaris [12] = assay: Antimicrobial activity against Proteus vulgaris MTCC 1771 assessed as growth inhibition after 24 hr by agar streak dilution method; details: MTCC 1771, 24 h
Aspergillus niger [13] = assay: Antimicrobial activity against Aspergillus niger MTCC 282 assessed as growth inhibition after 48 hr by agar streak dilution method; details: MTCC 282, 48 h
[14] = test system: Mycobacterium tuberculosis; assay: Antituberculosis activity against Mycobacterium tuberculosis H37Rv assessed as growth inhibition after 12 to 28 days by L-J MIC method; details: for MIC: Mycobacterium tuberculosis, H37Rv
Salmonella typhi [15] = assay: Antimicrobial activity against Salmonella enterica subsp. enterica serovar Typhi MTCC 733 assessed as diameter of growth inhibition zone after 24 hr
Shigella flexneri [16] = assay: Antimicrobial activity against Shigella flexneri MTCC1457 assessed as diameter of growth inhibition zone after 24 hr
Escherichia coli [17] = assay: Antimicrobial activity against Escherichia coli MTCC 739 assessed as growth inhibition after 24 hr by agar streak dilution method; details: MTCC 739, 24 h
Klebsiella pneumoniae [18] = assay: Antimicrobial activity against Klebsiella pneumoniae MTCC 109 assessed as growth inhibition after 24 hr by agar streak dilution method; details: MTCC 109, 24 h
Pseudomonas aeruginosa [19] = assay: Antimicrobial activity against Pseudomonas aeruginosa MTCC 741 assessed as growth inhibition after 24 hr by agar streak dilution method; details: MTCC 741, 24 h
Proteus vulgaris [20] = assay: Antimicrobial activity against Proteus vulgaris MTCC 1771 assessed as diameter of growth inhibition zone after 24 hr
Bacillus cereus [21] = assay: Antimicrobial activity against Bacillus cereus MTCC 430 assessed as growth inhibition after 24 hr by agar streak dilution method; details: MTCC 430, 24 h
Bacillus cereus [22] = assay: Antimicrobial activity against Bacillus cereus MTCC 430 assessed as diameter of growth inhibition zone after 24 hr
Staphylococcus aureus [23] = assay: Antimicrobial activity against Staphylococcus aureus MTCC 96 assessed as growth inhibition after 24 hr by agar streak dilution method; details: MTCC 96, 24 h
Aspergillus fumigatus [24] = assay: Antimicrobial activity against Aspergillus fumigatus MTCC 343 assessed as diameter of growth inhibition zone after 48 hr
Pseudomonas aeruginosa [25] = assay: Antimicrobial activity against Pseudomonas aeruginosa MTCC 741 assessed as diameter of growth inhibition zone after 24 hr

Row | SMILES | diameter of the inhibition zone (DIZ) (Aspergillus niger [1]) | MIC (Aspergillus clavatus [2]) | diameter of the inhibition zone (DIZ) (Escherichia coli [3]) | diameter of the inhibition zone (DIZ) (Candida albicans [4]) | MIC (Shigella flexneri [5]) | diameter of the inhibition zone (DIZ) (Staphylococcus aureus [6]) | MIC (Salmonella typhi [7]) | diameter of the inhibition zone (DIZ) (Aspergillus clavatus [8]) | diameter of the inhibition zone (DIZ) (Klebsiella pneumoniae [9]) | MIC (Aspergillus fumigatus [10]) | MIC (Candida albicans [11]) | MIC (Proteus vulgaris [12]) | MIC (Aspergillus niger [13]) | growth inhibition (GI) [14] | MIC [14] | diameter of the inhibition zone (DIZ) (Salmonella typhi [15]) | diameter of the inhibition zone (DIZ) (Shigella flexneri [16]) | MIC (Escherichia coli [17]) | MIC (Klebsiella pneumoniae [18]) | MIC (Pseudomonas aeruginosa [19]) | other results
1 | N#Cc1c(-c2ccc(Cl)cc2Cl)cc(-c2ccc(Nc3cc(=O)oc4ccccc34)cc2)nc1N | 22 mm | 25 µg/mL (≈ 50.1 µM) | 20 mm | 23 mm | 12.5 µg/mL (≈ 25 µM) | 28 mm | 12.5 µg/mL (≈ 25 µM) | 22 mm | 23 mm | 12.5 µg/mL (≈ 25 µM) | 12.5 µg/mL (≈ 25 µM) | 3.12 µg/mL (≈ 6.25 µM) | 12.5 µg/mL (≈ 25 µM) | 99% | 25 µg/mL (≈ 50.1 µM) | 24 mm | 23 mm | 12.5 µg/mL (≈ 25 µM) | 12.5 µg/mL (≈ 25 µM) | 6.25 µg/mL (≈ 12.5 µM) | diameter of the inhibition zone (DIZ) (Proteus vulgaris [20]): 28 mm; MIC (Bacillus cereus [21]): 6.25 µg/mL (≈ 12.5 µM); diameter of the inhibition zone (DIZ) (Bacillus cereus [22]): 26 mm; MIC (Staphylococcus aureus [23]): 3.12 µg/mL (≈ 6.25 µM); diameter of the inhibition zone (DIZ) (Aspergillus fumigatus [24]): 23 mm; diameter of the inhibition zone (DIZ) (Pseudomonas aeruginosa [25]): 25 mm
2 | O=C(/C=C/c1ccc(O)cc1O)c1ccc(Nc2cc(=O)oc3ccccc23)cc1 | 19 mm | 25 µg/mL (≈ 62.6 µM) | 19 mm | 16 mm | 100 µg/mL (≈ 250 µM) | 20 mm | 25 µg/mL (≈ 62.6 µM) | 20 mm | 21 mm | 25 µg/mL (≈ 62.6 µM) | 100 µg/mL (≈ 250 µM) | 25 µg/mL (≈ 62.6 µM) | 50 µg/mL (≈ 125 µM) | 95% | 500 µg/mL (≈ 1250 µM) | 21 mm | 17 mm | 50 µg/mL (≈ 125 µM) | 25 µg/mL (≈ 62.6 µM) | 25 µg/mL (≈ 62.6 µM) | diameter of the inhibition zone (DIZ) (Proteus vulgaris [20]): 20 mm; MIC (Bacillus cereus [21]): 100 µg/mL (≈ 250 µM); diameter of the inhibition zone (DIZ) (Bacillus cereus [22]): 16 mm; MIC (Staphylococcus aureus [23]): 50 µg/mL (≈ 125 µM); diameter of the inhibition zone (DIZ) (Aspergillus fumigatus [24]): 22 mm; diameter of the inhibition zone (DIZ) (Pseudomonas aeruginosa [25]): 19 mm
3 | O=C(/C=C/c1ccccc1O)c1ccc(Nc2cc(=O)oc3ccccc23)cc1 | 16 mm | 100 µg/mL (≈ 261 µM) | 14 mm | 13 mm | 100 µg/mL (≈ 261 µM) | 15 mm | 100 µg/mL (≈ 261 µM) | 11 mm | 19 mm | 50 µg/mL (≈ 130 µM) | 100 µg/mL (≈ 261 µM) | 100 µg/mL (≈ 261 µM) | 100 µg/mL (≈ 261 µM) | 97% | 500 µg/mL (≈ 1300 µM) | 13 mm | 13 mm | 100 µg/mL (≈ 261 µM) | 50 µg/mL (≈ 130 µM) | 100 µg/mL (≈ 261 µM) | diameter of the inhibition zone (DIZ) (Proteus vulgaris [20]): 15 mm; MIC (Bacillus cereus [21]): 100 µg/mL (≈ 261 µM); diameter of the inhibition zone (DIZ) (Bacillus cereus [22]): 13 mm; MIC (Staphylococcus aureus [23]): 100 µg/mL (≈ 261 µM); diameter of the inhibition zone (DIZ) (Aspergillus fumigatus [24]): 17 mm; diameter of the inhibition zone (DIZ) (Pseudomonas aeruginosa [25]): 15 mm
4 | Nc1nc(-c2ccc(Nc3cc(=O)oc4ccccc34)cc2)cc(-c2ccccc2Br)n1 | 20 mm | 50 µg/mL (≈ 103 µM) | 16 mm | 23 mm | 50 µg/mL (≈ 103 µM) | 17 mm | 50 µg/mL (≈ 103 µM) | 17 mm | 18 mm | 50 µg/mL (≈ 103 µM) | 25 µg/mL (≈ 51.5 µM) | 100 µg/mL (≈ 206 µM) | 50 µg/mL (≈ 103 µM) | 98% | 100 µg/mL (≈ 206 µM) | 20 mm | 19 mm | 100 µg/mL (≈ 206 µM) | 50 µg/mL (≈ 103 µM) | 100 µg/mL (≈ 206 µM) | diameter of the inhibition zone (DIZ) (Proteus vulgaris [20]): 17 mm; MIC (Bacillus cereus [21]): 100 µg/mL (≈ 206 µM); diameter of the inhibition zone (DIZ) (Bacillus cereus [22]): 16 mm; MIC (Staphylococcus aureus [23]): 100 µg/mL (≈ 206 µM); diameter of the inhibition zone (DIZ) (Aspergillus fumigatus [24]): 19 mm; diameter of the inhibition zone (DIZ) (Pseudomonas aeruginosa [25]): 15 mm
5 | N#Cc1c(-c2ccccc2O)cc(-c2ccc(Nc3cc(=O)oc4ccccc34)cc2)nc1N | 25 mm | 6.25 µg/mL (≈ 14 µM) | 24 mm | 24 mm | 12.5 µg/mL (≈ 28 µM) | 21 mm | 6.25 µg/mL (≈ 14 µM) | 27 mm | 28 mm | 6.25 µg/mL (≈ 14 µM) | 25 µg/mL (≈ 56 µM) | 12.5 µg/mL (≈ 28 µM) | 12.5 µg/mL (≈ 28 µM) | 97% | 25 µg/mL (≈ 56 µM) | 25 mm | 21 mm | 12.5 µg/mL (≈ 28 µM) | 3.12 µg/mL (≈ 6.99 µM) | 12.5 µg/mL (≈ 28 µM) | diameter of the inhibition zone (DIZ) (Proteus vulgaris [20]): 22 mm; MIC (Bacillus cereus [21]): 12.5 µg/mL (≈ 28 µM); diameter of the inhibition zone (DIZ) (Bacillus cereus [22]): 22 mm; MIC (Staphylococcus aureus [23]): 12.5 µg/mL (≈ 28 µM); diameter of the inhibition zone (DIZ) (Aspergillus fumigatus [24]): 25 mm; diameter of the inhibition zone (DIZ) (Pseudomonas aeruginosa [25]): 24 mm
6 | N#Cc1c(-c2ccccc2Br)cc(-c2ccc(Nc3cc(=O)oc4ccccc34)cc2)nc1N | 22 mm | 25 µg/mL (≈ 49.1 µM) | 18 mm | 24 mm | 12.5 µg/mL (≈ 24.5 µM) | 23 mm | 25 µg/mL (≈ 49.1 µM) | 19 mm | 23 mm | 12.5 µg/mL (≈ 24.5 µM) | 25 µg/mL (≈ 49.1 µM) | 25 µg/mL (≈ 49.1 µM) | 25 µg/mL (≈ 49.1 µM) | 98% | 100 µg/mL (≈ 196 µM) | 22 mm | 22 mm | 50 µg/mL (≈ 98.2 µM) | 12.5 µg/mL (≈ 24.5 µM) | 50 µg/mL (≈ 98.2 µM) | diameter of the inhibition zone (DIZ) (Proteus vulgaris [20]): 20 mm; MIC (Bacillus cereus [21]): 25 µg/mL (≈ 49.1 µM); diameter of the inhibition zone (DIZ) (Bacillus cereus [22]): 20 mm; MIC (Staphylococcus aureus [23]): 25 µg/mL (≈ 49.1 µM); diameter of the inhibition zone (DIZ) (Aspergillus fumigatus [24]): 22 mm; diameter of the inhibition zone (DIZ) (Pseudomonas aeruginosa [25]): 19 mm
